Organism: Rattus norvegicus
Test: DrugMatrix - Regimen: Daily Repeat
Assay type: toxicity, organism-based, Sprague-Dawley
Parameters: regimen Daily Repeat, gender Male, age 6-8 weeks
Conditions: in vivo, po, route oral GAVAGE; for BASOPHIL / EOSINOPHIL / ERYTHROCYTE COUNT / HEMATOCRIT / HEMOGLOBIN / LEUKOCYTE COUNT / LYMPHOCYTE / MEAN CORPUSCULAR HEMOGLOBIN / MEAN CORPUSCULAR HEMOGLOBIN CONCENTRATION / MEAN CORPUSCULAR VOLUME / MONOCYTE / NEUTROPHIL / NUCLEATED RED BLOOD CELLS / PLATELET COUNT / ABSOLUTE BASOPHIL / ABSOLUTE EOSINOPHIL / ABSOLUTE LYMPHOCYTE / ABSOLUTE MONOCYTE / ABSOLUTE SEGMENTED NEUTROPHIL: tissue Blood; for ALANINE AMINOTRANSFERASE / ALBUMIN / ALKALINE PHOSPHATASE / ASPARTATE AMINOTRANSFERASE / BLOOD UREA NITROGEN / CARBON DIOXIDE / CHLORIDE / CHOLESTEROL / CREATINE PHOSPHOKINASE / CREATININE / GLUCOSE / LACTATE DEHYDROGENASE / LIPASE / PHOSPHORUS / POTASSIUM / SODIUM / TOTAL BILIRUBIN / TOTAL PROTEIN / URIC ACID: tissue Plasma
[1] = 300 mg/kg, 120 h, dose level M2, time 5 day, vehicle 100 % SALINE
[2] = 420 mg/kg, 72 h, dose level High, time 3 day, vehicle 100 % WATER
[3] = 420 mg/kg, 120 h, dose level High, time 5 day, vehicle 100 % WATER
[4] = […], 72 h, dose 2.5 mg/Kg, dose level Low, time 3 day, vehicle 100 % WATER
[5] = […], 120 h, dose 2.5 mg/Kg, dose level Low, time 5 day, vehicle 100 % WATER

SMILES: CCCc1nn(C)c2c(=O)[nH]c(-c3cc(S(=O)(=O)N4CCN(C)CC4)ccc3OCC)nc12
- BASOPHIL [1]: 0%
- EOSINOPHIL [1]: 0%
- ERYTHROCYTE COUNT [1]: 5.43 x10E6/uL
- HEMATOCRIT [1]: 35.43%
- HEMOGLOBIN [1]: 14 G/DL
- LEUKOCYTE COUNT [1]: 11.23 x10E3/uL
- LYMPHOCYTE [1]: 91%
- MEAN CORPUSCULAR HEMOGLOBIN [1]: 25.83 pg
- MEAN CORPUSCULAR HEMOGLOBIN CONCENTRATION [1]: 39.53 G/DL
- MEAN CORPUSCULAR VOLUME [1]: 65.33 fL
- MONOCYTE [1]: 0%
- NEUTROPHIL [1]: 9%
- NUCLEATED RED BLOOD CELLS [1]: 0.67 /100WBC
- PLATELET COUNT [1]: 1112.67 x10E3/uL
- ALANINE AMINOTRANSFERASE [1]: 45 u/L
- ALBUMIN [1]: 4.03 G/DL
- ALKALINE PHOSPHATASE [1]: 344 u/L
- ASPARTATE AMINOTRANSFERASE [1]: 70.33 u/L
- BLOOD UREA NITROGEN [1]: 14.67 mg/dL
- CARBON DIOXIDE [1]: 33 mmol/L
- CHLORIDE [1]: 100.33 MEQ/L
- CHOLESTEROL [1]: 70 mg/dL
- CREATINE PHOSPHOKINASE [1]: 212 u/L
- CREATININE [1]: 0.31 mg/dL
- GLUCOSE [1]: 137.33 mg/dL
- LACTATE DEHYDROGENASE [1]: 106 u/L
- LIPASE [1]: 11.33 u/L
- PHOSPHORUS [1]: 10.77 mg/dL
- POTASSIUM [1]: 6.45 MEQ/L
- SODIUM [1]: 146.53 MEQ/L
- TOTAL BILIRUBIN [1]: 0.2 mg/dL
- TOTAL PROTEIN [1]: 5.43 G/DL
- URIC ACID [1]: 0.73 mg/dL
- ABSOLUTE BASOPHIL [2]: 0 CELLS/uL
- ABSOLUTE EOSINOPHIL [2]: 0 CELLS/uL
- ABSOLUTE LYMPHOCYTE [2]: 12448.33 CELLS/uL
- ABSOLUTE MONOCYTE [2]: 74 CELLS/uL
- ABSOLUTE SEGMENTED NEUTROPHIL [2]: 877.67 CELLS/uL
- BASOPHIL [2]: 0%
- EOSINOPHIL [2]: 0%
- ERYTHROCYTE COUNT [2]: 5.64 x10E6/uL
- HEMATOCRIT [2]: 35.27%
- HEMOGLOBIN [2]: 13.43 G/DL
- LEUKOCYTE COUNT [2]: 13.4 x10E3/uL
- LYMPHOCYTE [2]: 92.33%
- MEAN CORPUSCULAR HEMOGLOBIN [2]: 23.8 pg
- MEAN CORPUSCULAR HEMOGLOBIN CONCENTRATION [2]: 38.1 G/DL
- MEAN CORPUSCULAR VOLUME [2]: 62.57 fL
- MONOCYTE [2]: 0.67%
- NEUTROPHIL [2]: 7%
- NUCLEATED RED BLOOD CELLS [2]: 0 /100WBC
- PLATELET COUNT [2]: 944.33 x10E3/uL
- ALANINE AMINOTRANSFERASE [2]: 41.67 u/L
- ALBUMIN [2]: 3.77 G/DL
- ALKALINE PHOSPHATASE [2]: 304 u/L
- ASPARTATE AMINOTRANSFERASE [2]: 72.67 u/L
- BLOOD UREA NITROGEN [2]: 16.33 mg/dL
- CARBON DIOXIDE [2]: 30.33 mmol/L
- CHLORIDE [2]: 102.33 MEQ/L
- CHOLESTEROL [2]: 79.67 mg/dL
- CREATINE PHOSPHOKINASE [2]: 170 u/L
- CREATININE [2]: 0.14 mg/dL
- GLUCOSE [2]: 148 mg/dL
- LACTATE DEHYDROGENASE [2]: 130.33 u/L
- LIPASE [2]: 9.67 u/L
- PHOSPHORUS [2]: 8.4 mg/dL
- POTASSIUM [2]: 5.71 MEQ/L
- SODIUM [2]: 146.4 MEQ/L
- TOTAL BILIRUBIN [2]: 0.23 mg/dL
- TOTAL PROTEIN [2]: 5.6 G/DL
- URIC ACID [2]: 0.5 mg/dL
- ABSOLUTE BASOPHIL [3]: 0 CELLS/uL
- ABSOLUTE EOSINOPHIL [3]: 0 CELLS/uL
- ABSOLUTE LYMPHOCYTE [3]: 8874.67 CELLS/uL
- ABSOLUTE MONOCYTE [3]: 36 CELLS/uL
- ABSOLUTE SEGMENTED NEUTROPHIL [3]: 756 CELLS/uL
- BASOPHIL [3]: 0%
- EOSINOPHIL [3]: 0%
- ERYTHROCYTE COUNT [3]: 5.05 x10E6/uL
- HEMATOCRIT [3]: 32.73%
- HEMOGLOBIN [3]: 12.9 G/DL
- LEUKOCYTE COUNT [3]: 9.67 x10E3/uL
- LYMPHOCYTE [3]: 91.67%
- MEAN CORPUSCULAR HEMOGLOBIN [3]: 25.53 pg
- MEAN CORPUSCULAR HEMOGLOBIN CONCENTRATION [3]: 39.4 G/DL
- MEAN CORPUSCULAR VOLUME [3]: 64.8 fL
- MONOCYTE [3]: 0.33%
- NEUTROPHIL [3]: 8%
- NUCLEATED RED BLOOD CELLS [3]: 0 /100WBC
- PLATELET COUNT [3]: 1090.67 x10E3/uL
- ALANINE AMINOTRANSFERASE [3]: 33.67 u/L
- ALBUMIN [3]: 3.67 G/DL
- ALKALINE PHOSPHATASE [3]: 232 u/L
- ASPARTATE AMINOTRANSFERASE [3]: 57 u/L
- BLOOD UREA NITROGEN [3]: 15.67 mg/dL
- CARBON DIOXIDE [3]: 33.67 mmol/L
- CHLORIDE [3]: 99 MEQ/L
- CHOLESTEROL [3]: 77.67 mg/dL
- CREATINE PHOSPHOKINASE [3]: 155 u/L
- CREATININE [3]: 0.11 mg/dL
- GLUCOSE [3]: 144.67 mg/dL
- LACTATE DEHYDROGENASE [3]: 100 u/L
- LIPASE [3]: 10 u/L
- PHOSPHORUS [3]: 10.2 mg/dL
- POTASSIUM [3]: 5.99 MEQ/L
- SODIUM [3]: 146.03 MEQ/L
- TOTAL BILIRUBIN [3]: 0.17 mg/dL
- TOTAL PROTEIN [3]: 5.83 G/DL
- URIC ACID [3]: 0.63 mg/dL
- ABSOLUTE BASOPHIL [4]: 0 CELLS/uL
- ABSOLUTE EOSINOPHIL [4]: 0 CELLS/uL
- ABSOLUTE LYMPHOCYTE [4]: 7128 CELLS/uL
- ABSOLUTE MONOCYTE [4]: 81 CELLS/uL
- ABSOLUTE SEGMENTED NEUTROPHIL [4]: 891 CELLS/uL
- BASOPHIL [4]: 0%
- EOSINOPHIL [4]: 0%
- ERYTHROCYTE COUNT [4]: 5.44 x10E6/uL
- HEMATOCRIT [4]: 34.27%
- HEMOGLOBIN [4]: 13.2 G/DL
- LEUKOCYTE COUNT [4]: 8.1 x10E3/uL
- LYMPHOCYTE [4]: 88%
- MEAN CORPUSCULAR HEMOGLOBIN [4]: 24.4 pg
- MEAN CORPUSCULAR HEMOGLOBIN CONCENTRATION [4]: 38.53 G/DL
- MEAN CORPUSCULAR VOLUME [4]: 63.23 fL
- MONOCYTE [4]: 1%
- NEUTROPHIL [4]: 11%
- NUCLEATED RED BLOOD CELLS [4]: 0.33 /100WBC
- PLATELET COUNT [4]: 1027 x10E3/uL
- ALANINE AMINOTRANSFERASE [4]: 61 u/L
- ALBUMIN [4]: 4.03 G/DL
- ALKALINE PHOSPHATASE [4]: 377.33 u/L
- ASPARTATE AMINOTRANSFERASE [4]: 87.33 u/L
- BLOOD UREA NITROGEN [4]: 16 mg/dL
- CARBON DIOXIDE [4]: 29.33 mmol/L
- CHLORIDE [4]: 101.67 MEQ/L
- CHOLESTEROL [4]: 61 mg/dL
- CREATINE PHOSPHOKINASE [4]: 188.67 u/L
- CREATININE [4]: 0.1 mg/dL
- GLUCOSE [4]: 163 mg/dL
- LACTATE DEHYDROGENASE [4]: 107.67 u/L
- LIPASE [4]: 8.33 u/L
- PHOSPHORUS [4]: 9.57 mg/dL
- POTASSIUM [4]: 5.88 MEQ/L
- SODIUM [4]: 147.5 MEQ/L
- TOTAL BILIRUBIN [4]: 0.17 mg/dL
- TOTAL PROTEIN [4]: 5.97 G/DL
- URIC ACID [4]: 0.63 mg/dL
- ABSOLUTE BASOPHIL [5]: 0 CELLS/uL
- ABSOLUTE EOSINOPHIL [5]: 0 CELLS/uL
- ABSOLUTE LYMPHOCYTE [5]: 7975.33 CELLS/uL
- ABSOLUTE MONOCYTE [5]: 0 CELLS/uL
- ABSOLUTE SEGMENTED NEUTROPHIL [5]: 658 CELLS/uL
- BASOPHIL [5]: 0%
- EOSINOPHIL [5]: 0%
- ERYTHROCYTE COUNT [5]: 5.39 x10E6/uL
- HEMATOCRIT [5]: 34.73%
- HEMOGLOBIN [5]: 14 G/DL
- LEUKOCYTE COUNT [5]: 8.63 x10E3/uL
- LYMPHOCYTE [5]: 92%
- MEAN CORPUSCULAR HEMOGLOBIN [5]: 26 pg
- MEAN CORPUSCULAR HEMOGLOBIN CONCENTRATION [5]: 40.3 G/DL
- MEAN CORPUSCULAR VOLUME [5]: 64.5 fL
- MONOCYTE [5]: 0%
- NEUTROPHIL [5]: 8%
- NUCLEATED RED BLOOD CELLS [5]: 0.33 /100WBC
- PLATELET COUNT [5]: 629.67 x10E3/uL
- ALANINE AMINOTRANSFERASE [5]: 49.67 u/L
- ALBUMIN [5]: 4.27 G/DL
- ALKALINE PHOSPHATASE [5]: 363.67 u/L
- ASPARTATE AMINOTRANSFERASE [5]: 76 u/L
- BLOOD UREA NITROGEN [5]: 14.33 mg/dL
- CARBON DIOXIDE [5]: 32 mmol/L
- CHLORIDE [5]: 98.67 MEQ/L
- CHOLESTEROL [5]: 77 mg/dL
- CREATINE PHOSPHOKINASE [5]: 203.33 u/L
- CREATININE [5]: 0.13 mg/dL
- GLUCOSE [5]: 145.33 mg/dL
- LACTATE DEHYDROGENASE [5]: 120 u/L
- LIPASE [5]: 9.33 u/L
- PHOSPHORUS [5]: 11.67 mg/dL
- POTASSIUM [5]: 6.39 MEQ/L
- SODIUM [5]: 144.5 MEQ/L
- TOTAL BILIRUBIN [5]: 0.2 mg/dL
- TOTAL PROTEIN [5]: 6.3 G/DL
- URIC ACID [5]: 0.87 mg/dL
